# Measured values published in patent US20240287070A1, “FUSED HETEROCYCLIC DERIVATIVES” (Janssen Sciences Ireland Unlimited Company, priority 2021, published 2024).
# Legend:
# [1] = system: HBV (HepG2.117 cell line, inducibly HBV producing); test: Anti-HBV activity, intracellular HBV DNA by real-time PCR in HepG2.117 cell line; format: cell-based, hepatitis B virus; settings: HepG2.117 cells, 3 days of treatment
# Method in brief: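 First, HBV replication is induced in HepG2.117 cells by doxycycline absence. Next, serially diluted compound is added for 3 days. Finally, intracellular HBV DNA is quantified by HBV-specific real-time PCR.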
# HepG2 or HepG2.117 cells = test: Cytotoxicity, ATPlite Luminescence Assay; format: cell-based, human; settings: 3-days incubation unless marked with *
# Method in brief: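 Incubate with compound for 3 or 4 days, then assess cell viability via ATPlite luminescence.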
# [2] = Human liver microsome stability; format: in vitro ADME; settings: pooled human liver microsomes 0.5 mg/mL, 1 μM compound, NADPH 1 mM, 37° C., 0-60 min
# Method in brief: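 Half-life came from elimination rate constant (negative slope of ln compound/internal standard area ratio over time), measured by cassette LC-MS after acetonitrile quench. Human liver microsome reactions, one replicate per compound, were initiated with NADPH (1 mM final) and sampled at six points up to 60 min.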
SMILES,EC50 [1],CC50 (HepG2 or HepG2.117 cells),HLM Metabolism t1/2 [2]
"CC(C)Oc1cc(C(C)N2C[C@@H](C)n3nc4c(c3C2=O)CN(C(=O)c2ccc(Cl)c(C(F)(F)F)c2)[C@H](C)C4)ccn1 (single isomer, unassigned) [Compound 48B, (3R,7R)-2-(4-chloro-3-(trifluoromethyl)benzoyl)-9-((S*)-1-(2-isopropoxypyridin-4-yl)ethyl)-3,7-dimethyl-1,2,3,4,8,9-hexahydropyrido[4′,3′:3,4]pyrazolo[1,5-a]pyrazin-10(7H)-one]",0.028 µM,11.5 µM,1.66 h
"CC(c1cnc(C(C)(C)O)nc1)N1C[C@@H](C)n2nc3c(c2C1=O)CN(C(=O)c1ccc(Cl)c(Cl)c1)[C@H](C)C3 (single isomer, unassigned) [Compound 36B, (3R,7R)-2-(3,4-Dichlorobenzoyl)-9-((S*)-1-(2-(2-hydroxypropan-2-yl)pyrimidin-5-yl)ethyl)-3,7-dimethyl-1,2,3,4,8,9-hexahydropyrido[4′,3′:3,4]pyrazolo[1,5-a]pyrazin-10(7H)-one]",0.029 µM,> 50 µM,>3 h
"CC(c1ccccn1)N1C[C@@H](C)n2nc3c(c2C1=O)CN(C(=O)c1ccc(Cl)c(Cl)c1)[C@H](C)C3 (single isomer, unassigned) [Compound 65B, (3R,7R)-2-(3,4-dichlorobenzoyl)-3,7-dimethyl-9-((S*)-1-(pyridin-2-yl)ethyl)-1,2,3,4,8,9-hexahydropyrido[4′,3′:3,4]pyrazolo[1,5-a]pyrazin-10(7H)-one]",0.046 µM,> 50 µM,2.02 h
"Cc1nnnn1-c1ccc(C(C)N2C[C@@H](C)n3nc4c(c3C2=O)CN(C(=O)c2ccc(Cl)c(Cl)c2)[C@H](C)C4)cn1 (single isomer, unassigned) [Compound 27B, (3R,7R)-2-(3,4-dichlorobenzoyl)-3,7-dimethyl-9-((S*)-1-(6-(5-methyl-1H-tetrazol-1-yl)pyridin-3-yl)ethyl)-1,2,3,4,8,9-hexahydropyrido[4′,3′:3,4]pyrazolo[1,5-a]pyrazin-10(7H)-one]",0.018 µM,> 50 µM,1.39 h
"CC(c1ccc(C2(O)CC2)cc1)N1C[C@@H](C)n2nc3c(c2C1=O)CN(C(=O)c1ccc(Cl)c(C#N)c1)[C@H](C)C3 (single isomer, unassigned) [Compound 14B, 2-Chloro-5-((3R,7R)-9-((S*)-1-(4-(1-hydroxycyclopropyl)phenyl)ethyl)-3,7-dimethyl-10-oxo-1,2,3,4,7,8,9,10-octahydropyrido[4′,3′:3,4]pyrazolo[1,5-a]pyrazine-2-carbonyl)benzonitrile]",0.015 µM,> 50 µM,1.17 h
"CC(c1ccn(C(C)C)c(=O)c1)N1C[C@@H](C)n2nc3c(c2C1=O)CN(C(=O)c1ccc(Cl)c(C(F)(F)F)c1)[C@H](C)C3 (single isomer, unassigned) [Compound 47B, (3R,7R)-2-(4-chloro-3-(trifluoromethyl)benzoyl)-9-((S*)-1-(1-isopropyl-2-oxo-1,2-dihydropyridin-4-yl)ethyl)-3,7-dimethyl-1,2,3,4,8,9-hexahydropyrido[4′,3′:3,4]pyrazolo[1,5-a]pyrazin-10(7H)-one]",0.016 µM,> 50 µM,2.4 h
"C[C@@H]1Cc2nn3c(c2CN1C(=O)c1ccc(Cl)c(C(F)(F)F)c1)C(=O)N([C@H](C)c1ccc([S@@]2(=O)=NCCC2)nc1)C[C@H]3C (relative stereo) [Compound 30A, (3R,7R)-2-(4-chloro-3-(trifluoromethyl)benzoyl)-3,7-dimethyl-9-((R*)-1-(6-((R*)-1-oxido-4,5-dihydro-3H-116-isothiazol-1-yl)pyridin-3-yl)ethyl)-1,2,3,4,8,9-hexahydropyrido[4′,3′:3,4]pyrazolo[1,5-a]pyrazin-10(7H)-one]",0.14 µM,> 50 µM,0.495 h
"CC(c1cc(F)c(=O)n(C)c1)N1C[C@@H](C)n2nc3c(c2C1=O)CN(C(=O)c1ccc(Cl)c(Cl)c1)[C@H](C)C3 (relative stereo) [Compound 45A, (3R,7R)-2-(3,4-dichlorobenzoyl)-9-((R*)-1-(5-fluoro-1-methyl-6-oxo-,6-dihydropyridin-3-yl)ethyl)-3,7-dimethyl-1,2,3,4,8,9-hexahydropyrido[4′,3′:3,4]pyrazolo [1,5-a]pyrazin-10(7H)-one]",0.57 µM,> 50 µM,>3 h
"CC(c1ccc(S(N)(=O)=O)cc1)N1C[C@@H](C)n2nc3c(c2C1=O)CN(C(=O)c1ccc(Cl)c(Cl)c1)[C@H](C)C3 (single isomer, unassigned) [Compound 16B, 4-((S*)-1-((3R,7R)-2-(3,4-dichlorobenzoyl)-3,7-dimethyl-10-oxo-1,2,3,4,7,8-hexahydropyrido[4′,3′:3,4]pyrazolo[1,5-a]pyrazin-9(10H)-yl)ethyl)benzenesulfonamide]",0.059 µM,> 50 µM,>3 h
"C[C@@H]1Cc2nn3c(c2CN1C(=O)c1ccc(Cl)c(C(F)(F)F)c1)C(=O)N([C@@H](C)c1ccc([S@](C)(=O)=NC#N)cc1)C[C@H]3C (relative stereo) [Compound 20D, N—((S*)-(4-((S*)-1-((3R,7R)-2-(4-chloro-3-(trifluoromethyl)benzoyl)-3,7-dimethyl-10-oxo-1,3,4,7,8,10-hexahydropyrido[4′,3′:3,4]pyrazolo[1,5-a]pyrazin-9(2H)-yl)ethyl)phenyl)(methyl)(oxo)-16-sulfaneylidene)cyanamide]",0.032 µM,> 50 µM,1.47 h
"CC(c1cnn(C)c(=O)c1)N1C[C@@H](C)n2nc3c(c2C1=O)CN(C(=O)c1ccc(Cl)c(C(F)(F)F)c1)[C@H](C)C3 (single isomer, unassigned) [Compound 52B, (3R,7R)-2-(4-chloro-3-(trifluoromethyl)benzoyl)-3,7-dimethyl-9-((S*)-1-(1-methyl-6-oxo-1,6-dihydropyridazin-4-yl)ethyl)-1,2,3,4,8,9-hexahydropyrido [4′,3′:3,4]pyrazolo[1,5-a]pyrazin-10(7H)-one]",0.016 µM,> 50 µM,>3 h
"CNC(=O)C(c1ccc(OC(F)F)cc1)N1C[C@@H](C)n2nc3c(c2C1=O)CN(C(=O)c1ccc(Cl)c(Cl)c1)[C@H](C)C3 (single isomer, unassigned) [Compound 23B, (S*)-2-((3R,7R)-2-(3,4-dichlorobenzoyl)-3,7-dimethyl-10-oxo-1,3,4,7,8,10-hexahydropyrido[4′,3′:3,4]pyrazolo[1,5-a]pyrazin-9(2H)-yl)-2-(4-(difluoromethoxy)phenyl)-N-methylacetamide]",0.24 µM,49.3 µM,>3 h
"CC(c1cc(F)c(=O)n(C2CC2)c1)N1C[C@@H](C)n2nc3c(c2C1=O)CN(C(=O)c1ccc(Cl)c(Cl)c1)[C@H](C)C3 (single isomer, unassigned) [Compound 46B, (3R,7R)-9-((S*)-1-(1-cyclopropyl-5-fluoro-6-oxo-1,6-dihydropyridin-3-yl)ethyl)-2-(3,4-dichlorobenzoyl)-3,7-dimethyl-1,2,3,4,8,9-hexahydropyrido[4′,3′:3,4]pyrazolo[1,5-a]pyrazin-10(7H)-one]",0.031 µM,> 50 µM,>3 h
"CC(c1ccn(CC(F)(F)F)n1)N1C[C@@H](C)n2nc3c(c2C1=O)CN(C(=O)c1ccc(Cl)c(C#N)c1)[C@H](C)C3 (single isomer, unassigned) [Compound 42A, 2-chloro-5-((3R,7R)-3,7-Dimethyl-10-oxo-9-((R*)-1-(1-(2,2,2-trifluoroethyl)-1H-pyrazol-3-yl)ethyl)-1,2,3,4,7,8,9,10-octahydropyrido[4′,3′:3,4]pyrazolo[1,5-a]pyrazine-2-carbonyl)benzonitrile]",0.12 µM,> 50 µM,>3 h
